Source: the supplement of paper PMC8612539
Values after ≈ are worked out from the molar mass of the structure shown.

System: Pasteurella multocida
Assay: minimum inhibitory concentration (MIC)
Experimental: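 Broth microdilution MIC (Sensititre BOPO7F bovine plate, CLSI methods) of 19 antimicrobials against field isolates of P. multocida, M. haemolytica, H. somni (deep nasopharyngeal swabs) and E. coli, Enterococcus spp. (rectal swabs) from weaned dairy heifers. Incubation 16-24 h at 35 C. MIC is the lowest concentration preventing visible growth. Values with <= or > lie at the tested range limits. Trimethoprim-sulfamethoxazole is given as the trimethoprim component of a 1:19 mixture.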

## CCCN1C[C@H](C)[C@@H](O)[C@](C)(O)[C@@H](CC)OC(=O)[C@H](C)[C@@H](O[C@H]2C[C@@](C)(OC)[C@@H](O)[C@H](C)O2)[C@H](C)[C@@H](O[C@@H]2O[C@H](C)C[C@H](N(C)C)[C@H]2O)[C@](C)(O)C[C@H]1C [Gamithromycin]
Isolate (source animal id): 10
  minimum inhibitory concentration: 8 µg/mL (≈ 10.3 µM)
Isolate (source animal id): 11
  minimum inhibitory concentration: 8 µg/mL (≈ 10.3 µM)
Isolate (source animal id): 12
  minimum inhibitory concentration: 8 µg/mL (≈ 10.3 µM)
Isolate (source animal id): 19
  minimum inhibitory concentration: 8 µg/mL (≈ 10.3 µM)
Isolate (source animal id): 23
  minimum inhibitory concentration: 4 µg/mL (≈ 5.15 µM)
Isolate (source animal id): 26
  minimum inhibitory concentration: 4 µg/mL (≈ 5.15 µM)
Isolate (source animal id): 98
  minimum inhibitory concentration: 8 µg/mL (≈ 10.3 µM)
Isolate (source animal id): 104
  minimum inhibitory concentration: > 8 µg/mL
Isolate (source animal id): 115
  minimum inhibitory concentration: > 8 µg/mL
Isolate (source animal id): 117
  minimum inhibitory concentration: 8 µg/mL (≈ 10.3 µM)
Isolate (source animal id): 118
  minimum inhibitory concentration: 8 µg/mL (≈ 10.3 µM)
Isolate (source animal id): 121
  minimum inhibitory concentration: > 8 µg/mL
Isolate (source animal id): 124
  minimum inhibitory concentration: 8 µg/mL (≈ 10.3 µM)
Isolate (source animal id): 125
  minimum inhibitory concentration: 8 µg/mL (≈ 10.3 µM)
Isolate (source animal id): 128
  minimum inhibitory concentration: > 8 µg/mL
Isolate (source animal id): 131
  minimum inhibitory concentration: > 8 µg/mL
Isolate (source animal id): 135
  minimum inhibitory concentration: > 8 µg/mL
Isolate (source animal id): 136
  minimum inhibitory concentration: > 8 µg/mL
Isolate (source animal id): 140
  minimum inhibitory concentration: > 8 µg/mL
Isolate (source animal id): 144
  minimum inhibitory concentration: 8 µg/mL (≈ 10.3 µM)
Isolate (source animal id): 146
  minimum inhibitory concentration: 8 µg/mL (≈ 10.3 µM)
Isolate (source animal id): 150
  minimum inhibitory concentration: > 8 µg/mL
Isolate (source animal id): 151
  minimum inhibitory concentration: > 8 µg/mL
Isolate (source animal id): 153
  minimum inhibitory concentration: > 8 µg/mL
Isolate (source animal id): 155
  minimum inhibitory concentration: 8 µg/mL (≈ 10.3 µM)
Isolate (source animal id): 157
  minimum inhibitory concentration: 4 µg/mL (≈ 5.15 µM)
Isolate (source animal id): 160
  minimum inhibitory concentration: > 8 µg/mL
Isolate (source animal id): 164
  minimum inhibitory concentration: > 8 µg/mL
Isolate (source animal id): 165
  minimum inhibitory concentration: > 8 µg/mL
Isolate (source animal id): 167
  minimum inhibitory concentration: ≤ 1 µg/mL
Isolate (source animal id): 168
  minimum inhibitory concentration: 8 µg/mL (≈ 10.3 µM)
Isolate (source animal id): 169
  minimum inhibitory concentration: ≤ 1 µg/mL
Isolate (source animal id): 170
  minimum inhibitory concentration: 2 µg/mL (≈ 2.57 µM)
Isolate (source animal id): 171
  minimum inhibitory concentration: ≤ 1 µg/mL
Isolate (source animal id): 172
  minimum inhibitory concentration: ≤ 1 µg/mL
Isolate (source animal id): 173
  minimum inhibitory concentration: > 8 µg/mL
Isolate (source animal id): 174
  minimum inhibitory concentration: ≤ 1 µg/mL
Isolate (source animal id): 175
  minimum inhibitory concentration: ≤ 1 µg/mL
Isolate (source animal id): 176
  minimum inhibitory concentration: ≤ 1 µg/mL
Isolate (source animal id): 177
  minimum inhibitory concentration: ≤ 1 µg/mL
Isolate (source animal id): 178
  minimum inhibitory concentration: ≤ 1 µg/mL
Isolate (source animal id): 179
  minimum inhibitory concentration: ≤ 1 µg/mL
Isolate (source animal id): 182
  minimum inhibitory concentration: 4 µg/mL (≈ 5.15 µM)
Isolate (source animal id): 192
  minimum inhibitory concentration: ≤ 1 µg/mL
Isolate (source animal id): 193
  minimum inhibitory concentration: ≤ 1 µg/mL
Isolate (source animal id): 195
  minimum inhibitory concentration: 2 µg/mL (≈ 2.57 µM)
Isolate (source animal id): 196
  minimum inhibitory concentration: ≤ 1 µg/mL
Isolate (source animal id): 197
  minimum inhibitory concentration: 2 µg/mL (≈ 2.57 µM)
Isolate (source animal id): 198
  minimum inhibitory concentration: > 8 µg/mL
Isolate (source animal id): 199
  minimum inhibitory concentration: ≤ 1 µg/mL
Isolate (source animal id): 200
  minimum inhibitory concentration: ≤ 1 µg/mL
Isolate (source animal id): 201
  minimum inhibitory concentration: ≤ 1 µg/mL
Isolate (source animal id): 203
  minimum inhibitory concentration: ≤ 1 µg/mL
Isolate (source animal id): 204
  minimum inhibitory concentration: ≤ 1 µg/mL
Isolate (source animal id): 205
  minimum inhibitory concentration: > 8 µg/mL
Isolate (source animal id): 206
  minimum inhibitory concentration: ≤ 1 µg/mL
Isolate (source animal id): 207
  minimum inhibitory concentration: ≤ 1 µg/mL
Isolate (source animal id): 208
  minimum inhibitory concentration: ≤ 1 µg/mL
Isolate (source animal id): 209
  minimum inhibitory concentration: ≤ 1 µg/mL
Isolate (source animal id): 210
  minimum inhibitory concentration: > 8 µg/mL
Isolate (source animal id): 213
  minimum inhibitory concentration: ≤ 1 µg/mL
Isolate (source animal id): 216
  minimum inhibitory concentration: ≤ 1 µg/mL
Isolate (source animal id): 223
  minimum inhibitory concentration: 8 µg/mL (≈ 10.3 µM)
Isolate (source animal id): 227
  minimum inhibitory concentration: ≤ 1 µg/mL
Isolate (source animal id): 229
  minimum inhibitory concentration: 8 µg/mL (≈ 10.3 µM)
Isolate (source animal id): 233
  minimum inhibitory concentration: 8 µg/mL (≈ 10.3 µM)
Isolate (source animal id): 234
  minimum inhibitory concentration: 8 µg/mL (≈ 10.3 µM)
Isolate (source animal id): 237
  minimum inhibitory concentration: 8 µg/mL (≈ 10.3 µM)
Isolate (source animal id): 241
  minimum inhibitory concentration: 8 µg/mL (≈ 10.3 µM)
Isolate (source animal id): 245
  minimum inhibitory concentration: 8 µg/mL (≈ 10.3 µM)
Isolate (source animal id): 247
  minimum inhibitory concentration: 8 µg/mL (≈ 10.3 µM)
Isolate (source animal id): 250
  minimum inhibitory concentration: 8 µg/mL (≈ 10.3 µM)
Isolate (source animal id): 254
  minimum inhibitory concentration: 8 µg/mL (≈ 10.3 µM)
Isolate (source animal id): 255
  minimum inhibitory concentration: 8 µg/mL (≈ 10.3 µM)
Isolate (source animal id): 258
  minimum inhibitory concentration: ≤ 1 µg/mL
Isolate (source animal id): 261
  minimum inhibitory concentration: 8 µg/mL (≈ 10.3 µM)
Isolate (source animal id): 262
  minimum inhibitory concentration: 8 µg/mL (≈ 10.3 µM)
Isolate (source animal id): 269
  minimum inhibitory concentration: ≤ 1 µg/mL
Isolate (source animal id): 270
  minimum inhibitory concentration: 8 µg/mL (≈ 10.3 µM)
Isolate (source animal id): 274
  minimum inhibitory concentration: 8 µg/mL (≈ 10.3 µM)
Isolate (source animal id): 275
  minimum inhibitory concentration: 8 µg/mL (≈ 10.3 µM)
Isolate (source animal id): 276
  minimum inhibitory concentration: 8 µg/mL (≈ 10.3 µM)
Isolate (source animal id): 277
  minimum inhibitory concentration: ≤ 1 µg/mL
Isolate (source animal id): 278
  minimum inhibitory concentration: 8 µg/mL (≈ 10.3 µM)
Isolate (source animal id): 279
  minimum inhibitory concentration: 8 µg/mL (≈ 10.3 µM)
Isolate (source animal id): 280
  minimum inhibitory concentration: > 8 µg/mL
Isolate (source animal id): 284
  minimum inhibitory concentration: > 8 µg/mL
Isolate (source animal id): 285
  minimum inhibitory concentration: > 8 µg/mL
Isolate (source animal id): 287
  minimum inhibitory concentration: 8 µg/mL (≈ 10.3 µM)
Isolate (source animal id): 290
  minimum inhibitory concentration: 8 µg/mL (≈ 10.3 µM)
Isolate (source animal id): 294
  minimum inhibitory concentration: 8 µg/mL (≈ 10.3 µM)
Isolate (source animal id): 295
  minimum inhibitory concentration: > 8 µg/mL
Isolate (source animal id): 296
  minimum inhibitory concentration: 8 µg/mL (≈ 10.3 µM)
Isolate (source animal id): 307
  minimum inhibitory concentration: 8 µg/mL (≈ 10.3 µM)
Isolate (source animal id): 310
  minimum inhibitory concentration: 8 µg/mL (≈ 10.3 µM)
Isolate (source animal id): 311
  minimum inhibitory concentration: 8 µg/mL (≈ 10.3 µM)
Isolate (source animal id): 312
  minimum inhibitory concentration: > 8 µg/mL
Isolate (source animal id): 313
  minimum inhibitory concentration: > 8 µg/mL
Isolate (source animal id): 315
  minimum inhibitory concentration: > 8 µg/mL
Isolate (source animal id): 316
  minimum inhibitory concentration: > 8 µg/mL
